From patent US9675697B2 (THE REGENTS OF THE UNIVERSITY OF MICHIGAN, priority 2013, dated 2017)
Read-outs that look alike come from different tables or passages of the source.

How the values were obtained:
BRD2 BD2 [1] = target: T1, BRD2 BD2 (Homo sapiens (Human), UniProt P25440); test: FP competitive binding assay (BRD-1F probe)
Experimental: The FAM labeled fluorescent probe (BRD-1F) was synthesized based on a known small-molecule BET bromodomain inhibitor. […] Final BRD-1F concentration was 5 nM. Plates were incubated at room temperature for 1-2 hours with gentle shaking to assure equilibrium.
Final probe concentration is 5 nM in all assays. […] FP values were measured as described above.

MOLM-13 = test: Cell growth inhibition, CellTiter-Glo, acute leukemia cell line; format: cell-based; conditions: Homo sapiens, MOLM-13, 96 h, 4 days
Experimental: (§1) Cell growth inhibitory activity of representative BET bromodomain inhibitors was determined using CellTiter-Glo® Luminescent Cell Viability Assay. For leukemia cell lines MV-4-11 (ATCC, Manassas, Va.) and MOLM-13 (DSMZ, Germany), cells were seeded in 96-well white opaque cell culture plates at a density of 10,000 cells/well with serially diluted compounds and incubated at 37° C. in an atmosphere of 95% air and 5% CO2 for 4 days. Cell viability was determined using the CellTiter-Glo® Luminescent Cell Viability Assay Kit (Promega, Madison, Wis.) according to the manufacture's instruction. Briefly, a volume of CellTiter-Glo® Reagent equal to the volume of cell culture medium was added to each well, and then the plates were incubated at room temperature for 10-20 minutes. The luminescent signal was measured using a Tecan Infinite M1000 multimode microplate reader (Tecan, Morrisville, N.C.). The half maximal inhibitory concentration (IC50) was calculated using the GraphPad Prism 5 software (GraphPad Software, La Jolla, Calif.).

MV-4-11 = test: as above; format: cell-based; conditions: Homo sapiens, MV4-11, 96 h, 4 days
Experimental: as §1

[2] = system: leukemia MOLM-13 cell line; test: 4-day cell viability assay, CellTiter-Glo; format: cell-based; conditions: 4 days, read-out: Cell Growth Inhibition (IC50 (nM)) MOLM-13 Cell Line (CellTiter-Glo assay)
Experimental: (§2) The effect of representative BET bromodomain inhibitors on cell viability was determined in a 4-day proliferation assay. Cells were maintained in the appropriate culture medium with 10% FBS at 37° C. and an atmosphere of 5% CO2. All the cell lines were used within three months of thawing fresh vials.
(§3) Cells were seeded in 96-well flat bottom (Corning COSTAR, Corning, N.Y., cat#3595) or white opaque cell culture plates (BD Falcon, cat#353296) at a density of 3,000-10,000 cells/well in 75 μl of culture medium. Compounds were serially diluted in the appropriate medium, and 75 μl of the diluted compounds were added to the appropriate wells of the cell plate. After the addition of compounds, the cells were incubated at 37° C. in an atmosphere of 5% CO2 for 4 days. Cell viability was determined using the CellTiter-Glo® Luminescent Cell Viability Assay Kit (Promega, Madison, Wis.) for MOLM-13 cells and WST (2-(2-methoxy-4-nitrophenyl)-3-(4-nitrophenyl)-5-(2,4-disulfophenyl)-2H-tetrazolium, monosodium salt) Cell Counting-8 Kit (Dojindo Molecular Technologies, Inc., Rockville, Md.) for MDA-MB-436 cells according to the manufacturers' instructions.
For the CellTiter-Glo assay, 100 μl of CellTiter-Glo® Reagent was added to each well, and then the plates were incubated at room temperature for 10-20 minutes. The luminescent signal was measured using a Tecan Infinite M1000 multimode microplate reader (Tecan, Morrisville, N.C.). The readings were normalized to the DMSO-treated cells and the IC50 was calculated by nonlinear regression (four parameters sigmoid fitted with variable slope, least squares fit, and no constraint) analysis using the GraphPad Prism 5 software.

BRD2 BD1 [3] = target: T2, BRD2 BD1 (Homo sapiens (Human), UniProt P25440); test: FP competitive binding assay using Cpd. No. 350 as the probe
T2 sequence (P25440 74-180): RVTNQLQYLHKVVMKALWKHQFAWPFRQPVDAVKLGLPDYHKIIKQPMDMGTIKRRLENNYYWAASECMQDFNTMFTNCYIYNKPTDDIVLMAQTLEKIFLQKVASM
Experimental: (§8) Fluorescence Polarization (FP) competitive binding studies (see above) were carried out using the FAM labeled fluorescent probe Cpd. No. 350 to determine binding affinities of representative compounds to both BD1 and BD2 of BRD2, BRD3, and BRD4 proteins. Equilibrium dissociation constants (Id) values of Cpd. No. 350 to these six proteins were determined from protein saturation experiments by monitoring the total fluorescence polarization of mixtures composed with the fluorescent probe at a fixed concentration and proteins with increasing concentrations up to full saturation. Serial dilutions of testing protein were mixed with Cpd. No. 350 to a final volume of 200 μl in the assay buffer. […] Plates were incubated at room temperature for 30 minutes with gentle shaking to assure equilibrium. […] Kd values of Cpd.
(§9) The IC50 and Ki values of compounds were determined in a competitive binding experiment as described above. […] FP values were measured as described above. IC50 values were determined by nonlinear regression fitting of the competition curves.

BRD2 BD2 [4] = target: T1, BRD2 BD2; test: as above
Experimental: as §8, §9

BRD2 BD1 [5] = target: T2, BRD2 BD1; test: OctetRED biolayer interferometry (BLI) binding assay
Experimental: (§4) Binding affinities of synthesized compounds to BRD2 BD1 and BD2, BRD3 BD1 and BD2, and BRD4 BD1 and BD2 were also determined by a label free binding assay using the OctetRED label free biolayer interferometry (BLI) binding assay.
(§5) BLI measures interference pattern changes of light reflected from an optical layer and a biolayer containing protein targets only or complexed with interacting partners. The assay principle is similar to the surface plasmon resonance (SPR) assay in which the target protein is immobilized on an optical surface and then exposed to potential binding partners in solution. The interaction between the binding partner and the immobilized protein changes the optical properties of the biosensors, resulting in the wavelength shift of reflecting light which will change the interference pattern. Association and dissociation rates can be obtained by fitting the real time wavelength shift of the based on a proper binding model, from which KD values can be obtained thereafter.
(§6) Biotin labeled BRD proteins (10 μg/ml) in kinetic assay buffer (PBS, pH 7.4, 0.1% BSA and 0.01% Tween-20) were immobilized on Super Streptavidin (SSA) sensors for 15 minutes followed by washing in kinetic buffer for 10 minutes to eliminate any loose non-specific immobilization. […] These protein coated sensors were then immersed into the testing compound solutions, starting from the one with the lowest concentration, where compound association occurs and then returned to the fresh buffer for the dissociation. The same operation was repeated for the next solution with higher concentration up to the one with the highest concentration. […] For each kinetic cycle, kinetic curves for association and dissociation were obtained from raw sensorgrams by using the double reference subtraction protocol included in the analysis program (Data Analysis 7.0) provided by the manufacturer, in which nonspecific interaction and buffer drift were both corrected. The association and dissociation rate constants (kon and koff) were determined using the global fitting protocol in the analysis program based on a reversible 1:1 binding model. The equilibrium association constant (KA) was calculated thereafter. All binding data were collected at 30 degree. Assay plates were kept being shaken at 1000 RPM in the whole experiment time period to avoid mass transport effect.

BRD2 BD2 [6] = target: T1, BRD2 BD2; test: as above
Experimental: as §4, §5, §6

BRD3 BD1 [7] = target: T3, BRD3 BD1 (Homo sapiens (Human), UniProt Q15059); test: as above
T3 sequence (Q15059 34-140): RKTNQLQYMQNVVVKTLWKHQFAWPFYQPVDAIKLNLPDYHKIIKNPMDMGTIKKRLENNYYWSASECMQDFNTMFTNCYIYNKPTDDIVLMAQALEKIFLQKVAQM
Experimental: as §4, §5, §6

BRD3 BD2 [8] = target: T4, BRD3 BD2 (Homo sapiens (Human), UniProt Q15059); test: as above
T4 sequence (Q15059 306-415): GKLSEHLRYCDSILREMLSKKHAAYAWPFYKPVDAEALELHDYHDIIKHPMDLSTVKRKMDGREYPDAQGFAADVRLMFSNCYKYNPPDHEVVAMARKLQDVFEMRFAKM
Experimental: as §4, §5, §6

BRD4 BD1 [9] = target: T5, BRD4 BD1 (Homo sapiens (Human), UniProt O60885); test: as above
Experimental: as §4, §5, §6

BRD4 BD2 [10] = target: T6, BRD4 BD2 (Homo sapiens (Human), UniProt O60885); test: as above
Experimental: as §4, §5, §6

MV4;11 = test: Cell growth inhibition in leukemia cell line; format: cell-based
AML-2 = test: Cell growth inhibition in leukemia cell line; format: cell-based
Experimental: as §2, §3

K562 = test: Cell growth inhibition in leukemia cell line; format: cell-based; conditions: Homo sapiens
BRD4 BD1 [11] = target: T5, BRD4 BD1; test: FP competitive binding assay using Cpd. No. 350 as the probe
Experimental: as §8, §9

BRD4 BD2 [12] = target: T6, BRD4 BD2; test: as above
Experimental: as §8, §9

prostate VCaP cell line = test: Cell growth inhibition, Cell TiterGLO, 4 days; format: cell-based; conditions: Homo sapiens, VCaP, 96 h, treated 4 days, read-out: VCaP cells (IC50 (nM))
[13] = system: breast cancer MDA-MB-436 cell line; test: 4-day cell viability assay, WST; format: cell-based; conditions: Homo sapiens, MDA-MB-436, 96 h; 4 days; read-out: Cell Growth Inhibition (IC50 (nM)) MDA-436 Cell Line (WST assay)
Experimental: as §2, §3
For the WST assay, WST-8 reagent was added to each well at a final concentration of 10% (v/v), and then the plates were incubated at 37° C. for 1-2 hours for color development. The absorbance was measured at 450 nm using a SPECTRAmax PLUS plate reader (Molecular Devices, Sunnyvale, Calif.). The readings were normalized to the DMSO-treated cells and the half maximal inhibitory concentration (IC50) was calculated by nonlinear regression (four parameters sigmoid fitted with variable slope, least squares fit, and no constraint) analysis using the GraphPad Prism 5 software (GraphPad Software, La Jolla, Calif.).

BRD2 BD1 [14] = target: T2, BRD2 BD1; test: FP protein saturation experiment with probe Cpd. No. 350; format: binding; conditions: probe 1.5 nM
Experimental: (§7) Fluorescence Polarization (FP) competitive binding studies (see above) were carried out using the FAM labeled fluorescent probe Cpd. No. 350 to determine binding affinities of representative compounds to both BD1 and BD2 of BRD2, BRD3, and BRD4 proteins. Equilibrium dissociation constants (Id) values of Cpd. […] Final Cpd. […] Kd values of Cpd.

BRD2 BD2 [15] = target: T1, BRD2 BD2; test: as above; format: binding; conditions: probe 1.5 nM
Experimental: as §7

BRD3 BD1 [16] = target: T3, BRD3 BD1; test: as above; format: binding; conditions: probe 1.5 nM
Experimental: as §7

BRD3 BD2 [17] = target: T4, BRD3 BD2; test: as above; format: binding; conditions: probe 1.5 nM
Experimental: as §7

BRD4 BD1 [18] = target: T5, BRD4 BD1; test: as above; format: binding; conditions: probe 1.5 nM
Experimental: as §7

BRD4 BD2 [19] = target: T6, BRD4 BD2; test: as above; format: binding; conditions: probe 1.5 nM
Experimental: as §7

[20] = Homo sapiens, MV4-11, cell growth inhibition

T1 sequence (P25440 344-453): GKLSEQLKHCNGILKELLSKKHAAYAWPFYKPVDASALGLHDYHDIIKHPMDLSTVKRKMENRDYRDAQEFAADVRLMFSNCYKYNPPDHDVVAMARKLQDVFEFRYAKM

## COc1cc2c(cc1-c1c(C)noc1C)[nH]c1ccnc(-c3c(C)n[nH]c3C)c12
BRD2 BD2 [1]; BRD-1F probe 5 nM, protein 200 nM
  IC50: 92.8 ± 30.8 nM
BRD2 BD2 [1]; BRD-1F probe, calculated from IC50
  Ki: < 10 nM
MOLM-13
  IC50: < 500 nM
MV-4-11
  IC50: < 100 nM
[2]; Homo sapiens, MOLM-13, 96 h
  IC50: 311 ± 12 nM
BRD2 BD1 [3]; read-out: BRD2 BD1 Ki, FP, Cpd. No. 350 probe […]
  Ki: 48.3 ± 1.3 nM
BRD2 BD2 [4]; read-out: BRD2 BD2 Ki, FP, Cpd. No. 350 probe […]
  Ki: 57.7 ± 8.1 nM

## COc1cc2c(cc1-c1c(C)noc1C)[nH]c1ccnc(-c3c(C)n[nH]c3C)c12 [Cpd. No. 22, 4-(1-(3,5-dimethyl-1H-pyrazol-4-yl)-8-methoxy-5H-pyrido[4,3-b]indol-7-yl)-3,5-dimethylisoxazole]
BRD2 BD1 [5]
  Kd: 34 ± 2.1 nM
BRD2 BD2 [6]
  Kd: 24.4 ± 6.2 nM
BRD3 BD1 [7]
  Kd: 17.9 ± 8.8 nM
BRD3 BD2 [8]
  Kd: 18.7 ± 4.9 nM
BRD4 BD1 [9]
  Kd: 40 ± 6.4 nM
BRD4 BD2 [10]
  Kd: 27.9 ± 6.8 nM
[2]
  IC50: 183 ± 38 nM
MV4;11; cell growth inhibition
  IC50: 61 ± 28 nM
AML-2
  IC50: 101 ± 22 nM
K562
  IC50: > 2000 nM
BRD2 BD1 [3]
  Ki: 21 ± 3.3 nM
BRD2 BD2 [4]
  Ki: 15.4 ± 3.2 nM
BRD4 BD1 [11]
  Ki: 44.1 ± 6.4 nM
BRD4 BD2 [12]
  Ki: 16.1 ± 2.8 nM

## CCc1n[nH]c(CC)c1-c1nccc2[nH]c3cc(-c4c(C)noc4C)c(OC)cc3c12 [Cpd. No. 23, 4-(1-(3,5-diethyl-1H-pyrazol-4-yl)-8-methoxy-5H-pyrido[4,3-b]indol-7-yl)-3,5-dimethylisoxazole]
BRD2 BD1 [5]
  Kd: 25.6 ± 3.7 nM
BRD4 BD1 [9]
  Kd: 29 ± 8.8 nM
BRD4 BD2 [10]
  Kd: 12.9 ± 2.1 nM
[2]; Homo sapiens, MOLM-13, 96 h
  IC50: 104 ± 16 nM
Prostate VCaP cell line
  IC50: 117 nM
MV4;11; [20]
  IC50: 17 ± 3 nM
AML-2
  IC50: 104 ± 5 nM
K562
  IC50: > 2000 nM
BRD2 BD1 [3]
  Ki: 11.1 ± 1 nM
BRD2 BD2 [4]
  Ki: 11.7 ± 3 nM
BRD4 BD1 [11]
  Ki: 24.7 ± 1 nM
BRD4 BD2 [12]
  Ki: 12.2 ± 1.6 nM

## COc1cc2c(cc1-c1c(C)noc1C)[nH]c1ccnc(-c3c(C)nn(C)c3C)c12 [Cpd. No. 25, 4-(8-methoxy-1-(1,3,5-trimethyl-1H-pyrazol-4-yl)-5H-pyrido[4,3-b]indol-7-yl)-3,5-dimethylisoxazole]
BRD2 BD1 [5]
  Kd: 41.2 ± 2.2 nM
BRD2 BD2 [6]
  Kd: 35.9 ± 8.8 nM
[2]; Homo sapiens, MOLM-13, 96 h
  IC50: 343 ± 5 nM
[13]
  IC50: 119 nM
MV4;11; [20]
  IC50: 65 ± 24 nM
AML-2
  IC50: 163 ± 2 nM
K562
  IC50: > 2000 nM
BRD2 BD1 [3]
  Ki: 12.2 ± 1.7 nM
BRD2 BD2 [4]
  Ki: 22.2 ± 2.8 nM

## COc1cc2c(cc1-c1c(C)noc1C)[nH]c1ncnc(-c3c(C)n[nH]c3C)c12 [Cpd. No. 38]
MOLM-13
  IC50: < 500 nM
MV-4-11
  IC50: < 100 nM

## COc1cc2c(cc1-c1c(C)noc1C)[nH]c1ncnc(-c3c(C)[nH]c4ccccc34)c12 [Cpd. No. 44]
BRD2 BD1 [5]
  Kd: 33.8 ± 8.2 nM
BRD2 BD2 [6]
  Kd: 11 ± 4.7 nM
BRD3 BD1 [7]; BLI, read-out: Kd (nM) BRD3 BD1
  Kd: 17 ± 7 nM
BRD3 BD2 [8]; BLI, read-out: Kd (nM) BRD3 BD2
  Kd: 10.6 ± 1.1 nM
BRD4 BD1 [9]
  Kd: 27 ± 14.5 nM
BRD4 BD2 [10]
  Kd: 10.2 ± 4.5 nM
MOLM-13
  IC50: < 100 nM
MV-4-11
  IC50: < 100 nM

## COc1cc2c(cc1-c1c(C)noc1C)[nH]c1nc(C(=O)NC3CCN(CCCNC(=O)c4ccc(-c5c6ccc(=O)cc-6oc6cc(O)ccc56)c(C(=O)O)c4)CC3)nc(-c3ccnc4ccc(F)cc34)c12 [Cpd. No. 350]
BRD2 BD1 [14]
  Kd: 2 nM
BRD2 BD2 [15]
  Kd: 2.2 nM
BRD3 BD1 [16]
  Kd: 6.5 nM
BRD3 BD2 [17]
  Kd: 0.6 nM
BRD4 BD1 [18]
  Kd: 5.5 nM
BRD4 BD2 [19]
  Kd: 3 nM
